Experimental data from ChEMBL document CHEMBL1201862, “PubChem BioAssay data set” (2004).
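Growth conditions: 96-well plates. Treatment: test compound, 48 hours, 5 concentrations. Analysis: linear interpolation between bracketing concentrations; unreached endpoints set to highest concentration. Here, GI50 denotes the concentration required for 50% inhibition of growth.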 Calls of active or inactive are those of the source. No stated cut-off is given here; in the data, active = GI50 up to about 1.1 µM and inactive = higher.

Legend:
Test in all cases: growth of human tumour cells (NCI), 48 h
[1] = tested on: 786-0
[2] = tested on: A549
[3] = tested on: ACHN
[4] = tested on: CAKI-1
[5] = tested on: CCRF-CEM
[6] = tested on: COLO 205
[7] = tested on: DLD-1
[8] = tested on: DMS-114
[9] = tested on: DMS-273
[10] = tested on: EKVX
[11] = tested on: HCC 2998
[12] = tested on: HCT-116
[13] = tested on: HCT-15
[14] = tested on: HL-60
[15] = tested on: HOP-62
[16] = tested on: HOP-92
[17] = tested on: HT-29
[18] = tested on: IGROV-1
[19] = tested on: K562
[20] = tested on: KM-20L2
[21] = tested on: KM12
[22] = tested on: LOX IMVI
[23] = tested on: LXFL 529
[24] = tested on: M14
[25] = tested on: M19-MEL
[26] = tested on: MOLT-4
[27] = tested on: Malme-3M
[28] = tested on: NCI-H226
[29] = tested on: NCI-H23
[30] = tested on: NCI-H460
[31] = tested on: NCI-H522
[32] = tested on: OVCAR-3
[33] = tested on: OVCAR-4
[34] = tested on: OVCAR-5
[35] = tested on: OVCAR-8
[36] = tested on: RPMI-8226
[37] = tested on: RXF 393
[38] = tested on: SF-268
[39] = tested on: SF-295
[40] = tested on: SF-539
[41] = tested on: SK-MEL-28
[42] = tested on: SK-MEL-2
[43] = tested on: SK-MEL-5
[44] = tested on: SK-OV-3
[45] = tested on: SN12C
[46] = tested on: SNB-19
[47] = tested on: SNB-75
[48] = tested on: SNB-78
[49] = tested on: SR
[50] = tested on: SW-620
[51] = tested on: TK-10
[52] = tested on: U-251
[53] = tested on: UACC-257
[54] = tested on: UACC-62
[55] = tested on: UO-31
[56] = tested on: XF498
[57] = tested on: A498
[58] = tested on: HOP-18

Measured: GI50

COc1ccc(/C=N/N=C(\N)NO)cc1OC
inactive: [1] 31 µM | [2] 28.4 µM | [3] 25.6 µM | [4] 29.5 µM | [5] 49.7 µM | [6] 37.5 µM | [7] 60.1 µM | [8] 28.7 µM | [9] 48.9 µM | [10] 26.2 µM | [11] > 100 µM | [12] 42.8 µM | [14] 63.1 µM | [15] 31.9 µM | [16] 84.7 µM | [17] 28.7 µM | [18] 33.9 µM | [19] 11.5 µM | [20] 37.8 µM | [21] 52.7 µM | [22] 30.3 µM | [23] 33.9 µM | [24] 27.9 µM | [25] 44.8 µM | [26] > 100 µM | [27] 75.2 µM | [28] 28.1 µM | [29] > 100 µM | [30] 33.7 µM | [31] 26.3 µM | [32] > 100 µM | [33] 99.1 µM | [34] 63 µM | [35] 38.4 µM | [36] > 100 µM | [37] 30.5 µM | [38] 20.4 µM | [39] 46.9 µM | [40] 26.3 µM | [41] > 100 µM | [42] 58.5 µM | [43] 15.2 µM | [44] 45.1 µM | [45] 45.8 µM | [46] > 100 µM | [47] 42.9 µM | [48] > 100 µM | [49] 24.9 µM | [50] 65.2 µM | [51] 56.4 µM | [52] 38.1 µM | [53] 90.4 µM | [54] 23.3 µM | [55] 28.1 µM | [56] 35.1 µM
75.2 µM: [13]

NN=C1/C(=C\c2ccccc2)CCC/C1=C/c1ccccc1
36.7 µM: [13]
inactive: [1] 39.5 µM | [57] 29.6 µM | [2] 33.3 µM | [3] 27.4 µM | [5] 20.1 µM | [6] 26.9 µM | [7] 31.8 µM | [8] 26.1 µM | [9] 39.9 µM | [10] 44.7 µM | [11] 35.6 µM | [12] 30.8 µM | [14] 20.3 µM | [58] 63.4 µM | [15] 32.8 µM | [16] 25.7 µM | [18] 39.1 µM | [19] 20.4 µM | [20] 39.6 µM | [21] 34.1 µM | [22] 26.2 µM | [23] 31.4 µM | [24] 41.6 µM | [25] 31.6 µM | [26] 17.9 µM | [27] 22.4 µM | [29] 36.9 µM | [30] 32 µM | [31] 15.4 µM | [32] 32.3 µM | [33] 49.4 µM | [34] 94 µM | [35] 50.4 µM | [36] 16.4 µM | [37] 31 µM | [38] 34.3 µM | [39] 45.3 µM | [40] 24.4 µM | [41] 39.5 µM | [42] 36.6 µM | [44] > 100 µM | [45] 27 µM | [46] 44 µM | [47] 17.7 µM | [48] 50.5 µM | [50] 42.5 µM | [51] > 100 µM | [52] 34.9 µM | [53] 30.8 µM | [54] 40.3 µM | [55] 27.1 µM

COc1c(NC(C)=O)cc(C)cc1NC(C)=O
inactive: [1] > 100 µM | [57] > 100 µM | [2] > 100 µM | [3] > 100 µM | [4] > 100 µM | [5] > 100 µM | [6] > 100 µM | [7] > 100 µM | [8] > 100 µM | [9] > 100 µM | [10] > 100 µM | [11] > 100 µM | [12] > 100 µM | [14] > 100 µM | [15] > 100 µM | [16] > 100 µM | [19] > 100 µM | [21] > 100 µM | [22] > 100 µM | [24] > 100 µM | [25] > 100 µM | [26] > 100 µM | [30] > 100 µM | [31] > 100 µM | [32] > 100 µM | [33] > 100 µM | [35] > 100 µM | [36] > 100 µM | [37] > 100 µM | [38] > 100 µM | [39] > 100 µM | [40] > 100 µM | [41] > 100 µM | [42] > 100 µM | [43] > 100 µM | [44] > 100 µM | [45] > 100 µM | [47] > 100 µM | [48] > 100 µM | [49] > 100 µM | [50] > 100 µM | [51] > 100 µM | [52] > 100 µM | [53] > 100 µM | [54] > 100 µM | [56] > 100 µM
> 100 µM: [13]

CS(=O)(=O)N(CCC#N)c1ccc(C=O)cc1
inactive: [1] > 100 µM | [57] > 100 µM | [2] > 100 µM | [3] > 100 µM | [4] > 100 µM | [8] > 100 µM | [9] > 100 µM | [10] > 100 µM | [11] > 100 µM | [12] > 100 µM | [14] > 100 µM | [15] 97.9 µM | [17] > 100 µM | [18] > 100 µM | [19] > 100 µM | [20] > 100 µM | [21] > 100 µM | [22] > 100 µM | [23] > 100 µM | [24] > 100 µM | [25] > 100 µM | [26] 92.7 µM | [27] > 100 µM | [28] > 100 µM | [30] > 100 µM | [31] > 100 µM | [32] > 100 µM | [33] > 100 µM | [34] > 100 µM | [35] > 100 µM | [36] > 100 µM | [38] > 100 µM | [39] > 100 µM | [40] > 100 µM | [41] > 100 µM | [42] > 100 µM | [43] > 100 µM | [44] > 100 µM | [45] > 100 µM | [46] > 100 µM | [47] > 100 µM | [49] > 100 µM | [50] > 100 µM | [52] > 100 µM | [53] > 100 µM | [54] > 100 µM | [55] > 100 µM | [56] > 100 µM
> 100 µM: [13]

COc1ccc(-c2cc(=O)c3c(O)cc(O)cc3o2)c(OC)c1OC
inactive: [1] 80 µM | [2] 59.3 µM | [3] > 10 µM | [4] 60.8 µM | [5] 50 µM | [6] 57.7 µM | [7] 81.3 µM | [8] 50.1 µM | [10] > 100 µM | [11] 92 µM | [14] 10.1 µM | [15] > 100 µM | [16] 72.6 µM | [17] 80 µM | [18] > 100 µM | [19] 42.7 µM | [20] 30.1 µM | [21] 53.1 µM | [22] 70.1 µM | [23] 49.3 µM | [24] > 100 µM | [25] 63 µM | [27] > 100 µM | [28] > 100 µM | [29] > 100 µM | [31] 52.1 µM | [32] 38.9 µM | [33] 62.8 µM | [34] 92.3 µM | [36] 17.6 µM | [37] 48.8 µM | [38] 85.3 µM | [39] 87.5 µM | [40] > 100 µM | [41] 94.2 µM | [42] > 100 µM | [44] > 100 µM | [45] > 100 µM | [46] > 100 µM | [47] 38.3 µM | [50] 71.1 µM | [51] > 100 µM | [53] > 100 µM | [54] 97.1 µM | [56] 63 µM
